# Legend:
# [1] = tested on: MIA PaCa-2 cell line transplanted; assay: Tumor-cell-transplanted animal model assay 1, size of transplanted tumor, MIA PaCa-2; assay type: in vivo, BALB/c nude mice; settings: MIA PaCa-2 (FIG. 2-1)
# Method: (§1) Anti-asialo GM1 (rabbit) (Wako Pure Chemical Industries, Ltd.) was intraperitoneally administered to BALB/c nude mice, and the mice were grown at room temperature for 2 hours. To the back of each BALB/c nude mouse, 2×10^6 test cells were subcutaneously injected for transplantation. Compound 11 or compound 12 in a dose of 50 ng or 500 ng or in a dose of 40 ng or 400 ng was intraperitoneally administered to each mouse on each day, from the day following the date of transplantation for mice with the SW620 cell line transplanted, from the day 1 week after the date of transplantation for mice with the MIA PaCa-2 cell line transplanted, and the growth of a tumor mass in each transplantation site was observed. No compound was administered to a control group, and echinomycin in a dose of 40 ng or 400 ng was intraperitoneally administered to each mouse in groups with administration of echinomycin on each day.
# (§2) Each of the control group, groups with administration of echinomycin, groups with administration of compound 11, and groups with administration of compound 12 was n=5.
# [2] = Tumor-cell-transplanted animal model assay 2, body weight variation; assay type: in vivo, BALB/c nude mice; settings: MIA PaCa-2 transplanted mice
# Method: Anti-asialo GM1 (rabbit) (Wako Pure Chemical Industries, Ltd.) was intraperitoneally administered to BALB/c nude mice, and the mice were grown at room temperature for 2 hours. To the back of each BALB/c nude mouse, 2×10^6 cells of the MIA PaCa-2 cell line were subcutaneously injected for transplantation. Compound 11 or compound 12 in a dose of 500 ng was intraperitoneally administered to each mouse on each day from the day following the date of transplantation, and body weight was measured on each day (n=5 for each group). No compound was administered to a control group, and echinomycin in a dose of 400 ng was intraperitoneally administered to each mouse in a group with administration of echinomycin on each day, and body weight was measured at the date of slaughter (n=5 for each group).
# MIA PaCa-2 cell line = assay: SRB assay, pancreatic cancer cell (MIA PaCa-2 cell) line; assay type: cell-based
# Method: (§3) Used for cells were an SW620 cell line (ATCC), which was a colorectal cancer cell line, and an MIA PaCa-2 cell line (ATCC) and a Suit2 cell line (Health Science Research Resources Bank), which were a pancreatic cancer cell line.
# (§4) Culture of the MIA PaCa-2 cell line and the Suit2 cell line was performed by using a DMEM with 10% FBS, 2 mM L-glutamine, 50 U/mL penicillin, and 50 μg/mL streptomycin. Culture of the SW620 cell line was performed by using RPMI1640 with 10% FBS, 2 mM L-glutamine, 50 U/mL penicillin, and 50 μg/mL streptomycin.
# (§5) Test cells aliquoted into a 96-well plate at 1.0×10^4 cells/well were cultured for 24 hours, and compound 11 or compound 12 was then added to the culture solution to reach a final concentration of 1 ng/mL, 10 ng/mL, 100 ng/mL, or 1000 ng/mL to initiate incubation, and the plate was taken out after 24 hours, 48 hours, 72 hours, and 96 hours (n=5 for each case).
# (§6) To each well of the plate taken out, 100 μL of 10% trichloroacetic acid (TCA) was added, the plate was left to stand at 4° C. for 1 hour, and washed four times with pure water. […] Cell density after each incubation time was determined by measuring OD at 510 nm for stained cells lysed in 10 mM Tris buffer solution. […]
# Suit2 cell line = assay: SRB assay, pancreatic cancer cell (SuiT-2 cell) line; assay type: cell-based; settings: 100 ng/mL or more
# Method: as §3, §4, §5, §6
# SW620 cell line [3] = assay: SRB assay, colorectal cancer cell (SW620 cell) line; assay type: cell-based
# Method: as §3, §4, §5, §6
# [4] = tested on: SW620 cell line transplanted; assay: Tumor-cell-transplanted animal model assay 1, size of transplanted tumor, SW620; assay type: in vivo, BALB/c nude mice
# Method: as §1, §2
# SW620 cell line [5] = assay: Cell death inducibility, TUNEL method; assay type: cell-based; settings: 10 ng/mL, 48 hours
# Method: The SW620 cell line aliquoted into a 4-well glass chamber slide at 5.0×10^4 cells/well was cultured for 24 hours, and compound 12 was then added to the culture solution to reach a final concentration of 10 ng/mL to initiate incubation, and the slide was taken out after 48 hours.
# By using a commercially available cell death detection kit utilizing a TUNEL (TdT-mediated dUTP nick-end labeling) method (In Situ Cell Death Detection Kit and TMR red (Roche Diagnostic)) in accordance with a protocol provided by the manufacturer, TUNEL-stained cells (i.e., cells that underwent cell death) were detected and counted. No compound was added for a control group, and echinomycin was added for a group with administration of echinomycin so that the final concentration of echinomycin reached 10 ng/mL, and the above-described operations were performed.
# (§7) Each of the control group, group with administration of echinomycin, and group with administration of compound 12 was n=4.
# activated caspase-3 = assay: Detection of activated caspase-3 (Western blotting); assay type: cell-based; settings: 10 ng/mL, 48 hours; SW620; actin as endogenous control
# Method: The SW620 cell line aliquoted into a 6-well plate at 2.0×10^3 cells/well was cultured for 24 hours, and compound 12 was then added to the culture solution to reach a final concentration of 10 ng/mL to initiate incubation, and the plate was taken out after 48 hours.
# Proteins were collected by using a commercially available protein collection kit (mammalian cell extraction kit (BioVision, Inc.)) in accordance with a protocol provided by the manufacturer, and activated caspase-3 was quantified through Western blotting with a specific antibody to cleaved caspase-3 (Cell Signaling Technology, Inc.). Actin was used as an endogenous control. No compound was added for a control group, and echinomycin was added for a group with administration of echinomycin so that the final concentration of echinomycin reached 10 ng/mL, and the above-described operations were performed.
# as §7
# HIF-1a = settings: Non Patent Literature 2; cited from earlier work
# [6] = Non Patent Literature 1; clinical development abandoned; cited from earlier work
# [7] = 500 ng intraperitoneally each day
Compound,"size of transplanted tumor [1, 7]",tumor size reduction compared with echinomycin ([1]; 500 ng versus 400 ng of echinomycin),"body weight on day 28 of administration [2, 7]",growth-suppressing activity at low concentration compared with echinomycin (MIA PaCa-2 cell line; 10 ng/mL),"absorbance (cell density, OD at 510 nm) versus control; activity to suppress the growth of cancer cells (MIA PaCa-2 cell line; 100 ng/mL or more)","absorbance (cell density, OD at 510 nm) versus control; activity to suppress the growth of cancer cells (Suit2 cell line)",growth-suppressing activity at low concentration compared with echinomycin (SW620 cell line [3]; 10 ng/mL),"absorbance (cell density, OD at 510 nm) versus control; activity to suppress the growth of cancer cells (SW620 cell line [3]; 100 ng/mL or more)","size of transplanted tumor ([1]; any of the loadings, intraperitoneally each day)","tumor size reduction compared with echinomycin ([4]; 40 ng versus 400 ng of echinomycin, cell line not given)","size of transplanted tumor ([4]; any of the loadings, intraperitoneally each day, SW620 (FIG. 2-2))",number of cells that underwent cell death (TUNEL-stained cells) (SW620 cell line [5]),"amount of activated caspase-3, relative to control group (100±45) (activated caspase-3)",body weight on day 28 of administration ([2]; 400 ng intraperitoneally each day),HIF-1a inhibitory activity (HIF-1a),toxicity in phase 2 clinical trial [6]
CC(C)[C@H]1C(=O)OC[C@@H](NC(=O)c2cnc3ccccc3n2)C(=O)N[C@@H](C)C(=O)N(C)[C@H]2CSC[C@@H](C(=O)N1C)N(C)C(=O)[C@H](C)NC(=O)[C@H](NC(=O)c1cnc3ccccc3n1)COC(=O)[C@H](C(C)C)N(C)C2=O [compound 11],Reduction in the size of transplanted tumor,comparable with that provided by administration of 400 ng of echinomycin,Large reduction in body weight was not found,,,,,,,,,,,,,
CC(C)[C@H]1C(=O)OC[C@@H](NC(=O)c2nc3ccccc3cc2O)C(=O)N[C@@H](C)C(=O)N(C)[C@H]2CSC[C@@H](C(=O)N1C)N(C)C(=O)[C@H](C)NC(=O)[C@H](NC(=O)c1nc3ccccc3cc1O)COC(=O)[C@H](C(C)C)N(C)C2=O [compound 12],,,Large reduction in body weight was not found,higher than that of echinomycin,significant difference in absorbance,significant difference in absorbance,higher than that of echinomycin,significant difference in absorbance,reduction in the size of transplanted tumor,comparable with that of administration of 400 ng of echinomycin,reduction in the size of transplanted tumor,significantly larger than those for the control group and the group with administration of echinomycin,1107±273,,,
"CS[C@H]1SC[C@H]2C(=O)N(C)[C@@H](C(C)C)C(=O)OC[C@@H](NC(=O)c3cnc4ccccc4n3)C(=O)N[C@@H](C)C(=O)N(C)[C@@H]1C(=O)N(C)[C@@H](C(C)C)C(=O)OC[C@@H](NC(=O)c1cnc3ccccc3n1)C(=O)N[C@@H](C)C(=O)N2C [echinomycin, reference compound]",,,,,,,,,,,,,362±176,Large reduction in body weight was not found,HIF-1a inhibitory activity,toxicity

# Source: patent US11384121B2, “Creation of peptide-based anti-tumor agent” (National University Corporation Hokkaido University, priority 2018, dated 2022)
